Test results: paper PMC8791611 (Science Advances, 2022)

B1: BmrA E504A mutant (Bacillus subtilis multidrug ABC exporter, homodimeric) (natural protein)
chain: MPTKKQKSKSKLKPFFALVRRTNPSYGKLAFALALSVVTTLVSLLIPLLTKQLVDGFSMSNLSGTQIGLIALVFFVQAGLSAYATYALNYNGQKIISGLRELLWKKLIKLPVSYFDTNASGETVSRVTNDTMVVKELITTHISGFITGIISVIGSLTILFIMNWKLTLLVLVVVPLAALILVPIGRKMFSISRETQDETARFTGLLNQILPEIRLVKASNAEDVEYGRGKMGISSLFKLGVREAKVQSLVGPLISLVLMAALVAVIGYGGMQVSSGELTAGALVAFILYLFQIIMPMGQITTFFTQLQKSIGATERMIEILAEEEEDTVTGKQIENAHLPIQLDRVSFGYKPDQLILKEVSAVIEAGKVTAIVGPSGGGKTTLFKLLERFYSPTAGTIRLGDEPVDTYSLESWREHIGYVSQESPLMSGTIRENICYGLERDVTDAEIEKAAEMAYALNFIKELPNQFDTEVGERGIMLSGGQRQRIAIARALLRNPSILMLDAATSSLDSQSEKSVQQALEVLMEGRTTIVIAHRLSTVVDADQLLFVEKGEITGRGTHHELMASHGLYRDFAEQQLKMNADLENKAG

How the values were obtained:
[1] = target: T1, BmrA (Bacillus subtilis, UniProt O06967, E504A); assay: cryo-EM structure; type: binding
T1 sequence (O06967 1-589 E504A): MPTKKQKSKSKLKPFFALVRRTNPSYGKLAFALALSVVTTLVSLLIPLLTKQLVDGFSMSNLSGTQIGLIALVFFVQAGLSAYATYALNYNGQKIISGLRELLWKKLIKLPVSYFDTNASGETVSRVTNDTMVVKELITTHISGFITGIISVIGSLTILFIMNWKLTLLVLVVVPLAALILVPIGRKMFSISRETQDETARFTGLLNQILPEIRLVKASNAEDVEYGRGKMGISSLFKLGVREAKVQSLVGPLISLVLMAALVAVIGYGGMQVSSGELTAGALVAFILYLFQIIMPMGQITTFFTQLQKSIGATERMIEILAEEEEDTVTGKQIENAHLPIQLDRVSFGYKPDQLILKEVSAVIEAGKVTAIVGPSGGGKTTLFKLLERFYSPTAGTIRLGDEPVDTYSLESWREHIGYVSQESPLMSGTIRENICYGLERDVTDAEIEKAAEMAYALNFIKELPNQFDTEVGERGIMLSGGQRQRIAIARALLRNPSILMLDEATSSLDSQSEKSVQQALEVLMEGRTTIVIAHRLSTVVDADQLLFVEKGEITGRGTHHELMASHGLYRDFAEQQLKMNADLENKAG

[2] = target: T2, BmrA (Bacillus subtilis, UniProt O06967); assay: intrinsic fluorescence binding, purified WT BmrA in DDM
T2 sequence (O06967 1-589): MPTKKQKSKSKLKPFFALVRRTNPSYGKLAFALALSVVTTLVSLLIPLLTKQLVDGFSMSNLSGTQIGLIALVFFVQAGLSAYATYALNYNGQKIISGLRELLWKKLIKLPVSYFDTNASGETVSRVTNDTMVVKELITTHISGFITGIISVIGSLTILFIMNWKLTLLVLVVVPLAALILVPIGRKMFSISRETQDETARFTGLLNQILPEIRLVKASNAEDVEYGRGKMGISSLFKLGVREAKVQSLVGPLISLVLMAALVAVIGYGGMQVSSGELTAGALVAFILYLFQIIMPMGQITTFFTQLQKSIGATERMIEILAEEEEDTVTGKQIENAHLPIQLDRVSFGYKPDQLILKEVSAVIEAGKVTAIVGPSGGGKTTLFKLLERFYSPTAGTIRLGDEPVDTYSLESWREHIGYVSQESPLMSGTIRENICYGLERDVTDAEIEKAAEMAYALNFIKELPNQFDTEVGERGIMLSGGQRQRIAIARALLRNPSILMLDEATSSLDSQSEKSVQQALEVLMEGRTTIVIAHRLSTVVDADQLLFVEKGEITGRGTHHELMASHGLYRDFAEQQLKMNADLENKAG

[3] = target: the molecule itself; assay: crystal structure

Molecule	Kd [1]	Kd [2]	binding result [3]
CC/N=c1\cc2oc3cc(NCC)c(C)cc3c(-c3ccccc3C(=O)OCC)c-2cc1C [R6G]	3.3 ± 0.7 µM	4.8 ± 0.9 µM	–
B1	–	–	binds
